Patent publication US7589100B2, “Non-hygroscopic and powdery amorphous pimecrolimus” (TEVA Gyógyszergyár Zártkörún Müködö Részvénytársaság, priority 2004, dated 2009)

Test: Hygroscopicity: water content (LOD) of samples stored at different relative humidity for one week
Assay type: physicochemical
Excerpt: As used herein, the term “non-hygroscopic” refers to a compound that contains no more than about 2% wt/wt of water, more preferably no more than about 1.5% wt/wt of water, most preferably no more than about 1% wt/wt of water, when exposed to 80% humidity, at room temperature for 1 week. The hygroscopicity of amorphous pimecrolimus of the present invention was examined by measuring the water content in samples stored at different relative humidity value (RH) (0, 40, 60, and 80 percent) for a period of one week.

- hygroscopicity (result in words) (RH 0 to 80 percent, one week): non-hygroscopic
- LOD (%) (original sample, before storage): 1.1%
- LOD (%) (stored at RH 0 % for one week): 0.8%
- LOD (%) (stored at RH 40 % for one week): 1.1%
- LOD (%) (stored at RH 60 % for one week): 1.1%
- LOD (%) (stored at RH 80 % for one week): 1.1%
- water content of the samples (stored at relative humidity from about 0 percent to about 80 percent, one week): about 1%
SMILES: CC[C@@H]1/C=C(\C)C[C@H](C)C[C@H](OC)[C@H]2O[C@@](O)(C(=O)C(=O)N3CCCC[C@H]3C(=O)O[C@H](/C(C)=C/[C@@H]3CC[C@H](Cl)[C@H](OC)C3)[C@H](C)[C@@H](O)CC1=O)[C@H](C)C[C@@H]2OC [Pimecrolimus, (1R,9S,12S,13R,14S,17R,18E,21 S,23S,24R,25S,27R)-12-[(1E)-2-{(1R,3R,4S)-4-chloro-3-methoxycyclohexyl}-1-methylvinyl]-17-ethyl-1,14-dihydroxy-23,25-dimethoxy-13,19,21,27-tetramethyl-11,28-dioxa-4-aza-tricyclo[22.3.1.0^4,9]octacos-18-ene-2,3,10,16-tetraone]
